# Legend:
# [1] = molecular target: T1, human M1 receptor (hCHRM1) (Homo sapiens, UniProt P11229); experiment: Measurement of M1 receptor positive allosteric modulator (M1PAM) activity, calcium fluorescence in CHO-K1 cells; format: cell-based; conditions: for activity (%) at 10 μM: 10 μM test compound, 100% = acetylcholine final concentration 1 μM, 0% = DMSO; for EC50: inflection point of concentration-dependent curve, in the presence of acetylcholine at EC20 concentration (final 0.8-1.0 nM), read-out: IP value
# T1 construct: expressed in transfected cells
# T1 sequence (P11229 1-460): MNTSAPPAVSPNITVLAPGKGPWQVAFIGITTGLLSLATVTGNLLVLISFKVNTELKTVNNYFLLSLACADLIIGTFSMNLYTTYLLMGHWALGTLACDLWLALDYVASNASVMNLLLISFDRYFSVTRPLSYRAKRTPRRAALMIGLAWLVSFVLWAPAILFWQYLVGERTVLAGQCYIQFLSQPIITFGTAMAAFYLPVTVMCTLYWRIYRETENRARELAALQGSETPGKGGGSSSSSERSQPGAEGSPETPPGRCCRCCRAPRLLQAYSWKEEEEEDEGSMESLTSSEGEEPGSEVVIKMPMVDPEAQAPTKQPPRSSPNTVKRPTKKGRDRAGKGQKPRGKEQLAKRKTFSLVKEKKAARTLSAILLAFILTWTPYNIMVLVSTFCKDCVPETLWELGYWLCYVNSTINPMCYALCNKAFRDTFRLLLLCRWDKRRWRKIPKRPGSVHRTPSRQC
# Description: Measurement of M1 Receptor Positive Allosteric Modulator (M1PAM) Activity
# The activity of a test compound in the presence of acetylcholine at EC20 concentration (final concentration 0.8-1.0 nM), which affords an action corresponding to about 20% of the maximum activity, was measured as PAM activity. The method is as follows. CHO-K1 cells stably expressing a human M1 receptor (hCHRM1) were plated on a 384-well black clear bottom plate (BD Falcon) at 5,000 cells/well, and cultured in an incubator at 37° C., 5% CO2 for 1 day. The medium in the cell plate was removed, and assay buffer A containing calcium indicator (Recording medium (DOJINDO LABORATORIES), 0.1% BSA (Wako Pure Chemical Industries, Ltd.), 2.5 μg/mL Fluo-4 AM (DOJINDO LABORATORIES), 0.08% Pluronic F127 (DOJINDO LABORATORIES), 1.25 mM probenecid (DOJINDO LABORATORIES)) was added at 30 μL/well. The cells were left standing in the incubator at 37° C., 5% CO2 for 30 min, and further left standing at room temperature for 30 min. A test compound prepared by diluting with assay buffer B (HBSS (Invitrogen), 20 mM HEPES (Invitrogen), 0.1% BSA) containing 3.2-4.0 nM acetylcholine was added at 10 μL/well, and the fluorescence was measured by FDSS/pCELL (Hamamatsu Photonics K.K.) for 1 min every for 1 second. With the definition that the amount of change in the fluorescence on addition of acetylcholine (final concentration 1 μM) is 100% and that on addition of DMSO instead of a test compound is 0%, the activity (%) of the test compound was calculated, and the inflection point in the concentration-dependent curve of the test compound was calculated as IP values.
# MDR1 = molecular target: T2, MDR1 (Homo sapiens, UniProt P08183); experiment: MDR1 membrane permeability test; format: in vitro ADME; conditions: pH 7.4, efflux ratio (ER), Papp B to A / A to B, human MDR1-expressing LLC-PK1 cells, read-out: MDR1 substrate screening 1 μM (MDRSUB1)/Ratio (NUMBER)
# T2 construct: expressed in transfected cells
# Description: MDR1 Membrane Permeability Test
# When MDR1 is expressed in excess in LLC-PK1 cell, which is a polar cell, MDR1 is localized in apical membrane (A), thus promoting transcellular transport from the basement membrane side (B) toward direction A. When a ratio to the transcellular transport in the opposite direction is taken and a ratio to a control cell in which a mock vector has been introduced is further taken, an efflux ratio of MDR1 to simple diffusion (corrected efflux ratio) is calculated. Similarly, when a brain/plasma concentration ratio in Mdr1(−/−) mouse is divided by a brain/plasma concentration ratio in wild-type mouse, an efflux ratio of Mdr1 to simple diffusion in BBB (Kp, brain ratio, higher value means lower central nervous system permeability) is calculated. Adachi Y. et al. (Reference 1) has reported a positive correlation between corrected efflux ratio and Kp, brain ratio (FIG. 5(C)), and efflux ratio in MDR1 expressing cell and Kp, brain ratio (FIG. 5(B)).
# To confirm the central nervous system permeability of the compounds of the present invention, a MDR1 membrane permeability test was performed by the following method.
# Human MDR1-expressing LLC-PK1 cells were cultured according to the report of Takeuchi et al. (Reference 2). Human MDR1-expressing LLC-PK1 cells were cultured in 10% fetal bovine serum (Invitrogen), 500 μg/ml G418 (Invitrogen), 150 ng/ml colchicine-containing M199 medium (Invitrogen) under 5% CO2 conditions at 37° C.
# Transcellular transport was performed according to the report of Sugimoto et al. (Reference 3). The cells were cultured for 3 days on HTS Transwell (registered trademark) 96 well permeable support (pore size 0.4 μm, 0.143 cm^2 surface area, Corning Life Sciences) having polyethylene terephthalate membrane on which the cells had been seeded at 3.45×10^4 cells/well. After preincubation in M199 medium (containing 10 mmol/L HEPES, 1% BSA, pH 7.4) for 30 min, a drug solution (10 μmol/L digoxin, 200 μmol/L LY, […]) dissolved in M199 medium was added to the apical side or basolateral side of the Transwell by 75 or 250 μL each and the cells were cultured under 5% CO2 conditions at 37° C. After 1 hr, the sample was collected from the side opposite to the side where the drug solution was added, and the concentration of the test compound was measured by LC-MS/MS. As an internal standard substance, 100 ng/mL alprenolol and diclofenac were used. The analysis conditions were as follows.
# Papp, A to B and Papp, B to A (apparent permeability) were calculated from the formula (1), and the efflux ratio (ER) was calculated from the formula (2).
# T2 sequence (P08183 whole entry): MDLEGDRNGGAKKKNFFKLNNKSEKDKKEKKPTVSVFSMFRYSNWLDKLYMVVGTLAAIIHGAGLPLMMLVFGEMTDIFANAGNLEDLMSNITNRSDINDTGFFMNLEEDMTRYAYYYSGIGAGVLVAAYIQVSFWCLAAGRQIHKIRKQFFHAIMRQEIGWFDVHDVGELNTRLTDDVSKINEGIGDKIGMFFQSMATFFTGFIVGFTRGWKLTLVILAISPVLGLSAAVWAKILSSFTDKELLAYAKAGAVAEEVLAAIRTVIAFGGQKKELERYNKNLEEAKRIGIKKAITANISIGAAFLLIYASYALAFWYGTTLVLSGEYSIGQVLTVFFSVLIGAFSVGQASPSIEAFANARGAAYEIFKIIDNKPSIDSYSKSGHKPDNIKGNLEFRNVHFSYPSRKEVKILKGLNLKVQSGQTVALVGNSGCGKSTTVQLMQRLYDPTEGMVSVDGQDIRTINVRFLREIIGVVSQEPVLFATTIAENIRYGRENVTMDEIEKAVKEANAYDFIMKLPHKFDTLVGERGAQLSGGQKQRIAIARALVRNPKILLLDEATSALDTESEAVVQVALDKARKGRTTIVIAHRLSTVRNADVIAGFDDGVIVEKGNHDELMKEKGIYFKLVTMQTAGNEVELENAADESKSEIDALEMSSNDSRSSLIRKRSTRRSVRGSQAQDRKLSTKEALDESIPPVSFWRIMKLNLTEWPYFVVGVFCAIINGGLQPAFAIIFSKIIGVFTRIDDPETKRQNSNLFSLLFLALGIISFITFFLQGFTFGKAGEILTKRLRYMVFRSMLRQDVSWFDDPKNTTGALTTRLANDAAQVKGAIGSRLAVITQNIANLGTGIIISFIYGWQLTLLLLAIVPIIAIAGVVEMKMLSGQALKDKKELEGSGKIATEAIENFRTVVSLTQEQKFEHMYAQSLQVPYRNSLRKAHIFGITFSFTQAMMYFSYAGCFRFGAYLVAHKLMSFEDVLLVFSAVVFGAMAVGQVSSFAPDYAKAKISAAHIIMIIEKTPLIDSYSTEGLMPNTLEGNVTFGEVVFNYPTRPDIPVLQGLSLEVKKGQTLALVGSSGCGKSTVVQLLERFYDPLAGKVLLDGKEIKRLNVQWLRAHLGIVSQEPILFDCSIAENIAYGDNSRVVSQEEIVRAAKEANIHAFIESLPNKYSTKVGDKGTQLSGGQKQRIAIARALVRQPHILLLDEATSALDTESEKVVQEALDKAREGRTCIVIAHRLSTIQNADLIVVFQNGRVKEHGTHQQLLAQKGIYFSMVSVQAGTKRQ
Compound,activity (%) at 10 μM [1],EC50 [1],"efflux ratio at 1 hr, 1 μM (MDR1)"
"Cc1cc(-c2ccc(Cc3cc4c(=O)n([C@H]5CCOC[C@@H]5O)cnc4c(C)c3C)cc2)cnn1 [Example 4, 1,5-anhydro-2,3-dideoxy-3-(7,8-dimethyl-6-(4-(6-methylpyridazin-4-yl)benzyl)-4.-oxoquinazolin-3(4H)-yl)-L-threo-pentitol]",101%,2 nM,5.7
"COc1cc2ncn([C@H]3CCOC[C@@H]3O)c(=O)c2cc1Cc1ccc(-c2cn(C)cn2)cc1 [Example 61, 1,5-anhydro-2,3-dideoxy-3-(7-methoxy-6-(4-(1-methyl-1H-imidazol-4-yl)benzyl)-4-oxoquinazolin-3 (4H)-yl)-L-threo-pentitol]",108%,2.2 nM,32
"COCCCNC(=O)c1ccc(Cc2cc3c(=O)n([C@H]4CCOC[C@@H]4O)cnc3c(C)c2C)cc1F [Example 86, 1,5-anhydro-2,3-dideoxy-3-(6-(3-fluoro-4-((3-methoxypropyl)carbamoyl)benzyl)-7,8-dimethyl-4-oxoquinazolin-3(4H)-yl)-L-threo-pentitol]",110%,3.1 nM,7.8
"Cc1c(Cc2ccc(C(=O)NC3CCOC3)cc2)cc2c(=O)n([C@H]3CCOC[C@@H]3O)cnc2c1C (stereo partly drawn) [Example 33, 1,5-anhydro-2,3-dideoxy-3-(7,8-dimethyl-4-oxo-6-(4-(tetrahydrofuran-3-ylcarbamoyl)benzyl)quinazolin-3 (4H)-yl)-L-threo-pentitol]",111%,1.8 nM,20
"COCCn1cc(-c2ccc(Cc3cc4c(=O)n([C@H]5CCOC[C@@H]5O)cnc4c(C)c3C)cn2)cn1 [Example 73, 1,5-anhydro-2,3-dideoxy-3-(6-((6-(1-(2-methoxyethyl)-1H-pyrazol-4-yl)pyridin-3-yl)methyl)-7,8-dimethyl-4-oxoquinazolin-3(4H)-yl)-L-threo-pentitol]",109%,1.4 nM,18
"Cc1c(Cc2ccc(C(=O)NCC(C)(C)O)cc2)cc2c(=O)n([C@H]3CCOC[C@@H]3O)cnc2c1C [Example 39, 1,5-anhydro-2,3-dideoxy-3-(6-(4-((2-hydroxy-2-methylpropyl)carbamoyl)benzyl)-7,8-dimethyl-4-oxoquinazolin-3 (4H)-yl)-L-threo-pentitol]",112%,3.3 nM,
"Cc1c(Cc2ccc(-c3ccn(C)n3)nc2)cc2c(=O)n([C@H]3CCOC[C@@H]3O)cnc2c1C [Example 1, 1,5-anhydro-2,3-dideoxy-3-(7,8-dimethyl-6-((6-(1-methyl-1H-pyrazol-3-yl)pyridin-3-yl)methyl)-4-oxoquinazolin-3(4H)-yl)-L-threo-pentitol]",101%,2.1 nM,4.7
"Cc1c(Cc2ccc(-c3cnn(C)c3)cc2)cc2c(=O)n([C@H]3CCOC[C@@H]3O)cnc2c1F [Example 24, 1,5-anhydro-2,3-dideoxy-3-(8-fluoro-7-methyl-6-(4-(1-methyl-1H-pyrazol-4-yl)benzyl)-4-oxoquinazolin-3(4H)-yl)-L-threo-pentitol]",108%,3.7 nM,3.4
"Cc1c(Cc2ccc(-c3cnn(CC4CC4)c3)nc2)cc2c(=O)n([C@H]3CCOC[C@@H]3O)cnc2c1C [Example 71, 1,5-anhydro-3-(6-((6-(1-(cyclopropylmethyl)-1H-pyrazol-4-yl)pyridin-3-yl)methyl)-7,8-dimethyl-4-oxoquinazolin-3(4H)-yl)-2,3-dideoxy-L-threo-pentitol]",107%,2.5 nM,8
"Cc1c(Cc2ccc(C(=O)NCC(=O)N(C)C)c(F)c2)cc2c(=O)n([C@H]3CCOC[C@@H]3O)cnc2c1C [Example 68, 1,5-anhydro-2,3-dideoxy-3-(6-(4-((2-(dimethylamino)-2-oxoethyl)carbamoyl)-3-fluorobenzyl)-7,8-dimethyl-4-oxoquinazolin-3 (4H)-yl)-L-threo-pentitol]",106%,1.7 nM,19
"Cc1c(Cc2ccc(C(=O)NC3CS(=O)(=O)C3)c(F)c2)cc2c(=O)n([C@H]3CCOC[C@@H]3O)cnc2c1C [Example 83, 1,5-anhydro-2,3-dideoxy-3-(6-(4-((1,1-dioxidethietan-3-yl)carbamoyl)-3-fluorobenzyl)-7,8-dimethyl-4-oxoquinazolin-3 (4H)-yl)-L-threo-pentitol]",109%,1.5 nM,19
"Cc1c(Cc2ccc(C(=O)NCCO)cc2)cc2c(=O)n([C@H]3CCOC[C@@H]3O)cnc2c1C [Example 50, 1,5-anhydro-2,3-dideoxy-3-(6-(4-((2-hydroxyethyl)carbamoyl)benzyl)-7,8-dimethyl-4-oxoquinazolin-3 (4H)-yl)-L-threo-pentitol]",103%,0.8 nM,13
"Cc1c(Cc2ccc(-c3cnn(C4CC4)c3)nc2)cc2c(=O)n([C@H]3CCOC[C@@H]3O)cnc2c1C [Example 56, 1,5-anhydro-3-(6-((6-(1-cyclopropyl-1H-pyrazol-4-yl)pyridin-3-yl)methyl)-7,8-dimethyl-4-oxoquinazolin-3 (4H)-yl)-2,3-dideoxy-L-threo-pentitol]",107%,2.1 nM,4.9
"Cc1c(Cc2ccc(C(=O)NCC3COC3)c(F)c2)cc2c(=O)n([C@H]3CCOC[C@@H]3O)cnc2c1C [Example 79, 1,5-anhydro-2,3-dideoxy-3-(6-(3-fluoro-4-((oxetan-3-ylmethyl)carbamoyl)benzyl)-7,8-dimethyl-4-oxoquinazolin-3 (4H)-yl)-L-threo-pentitol]",108%,1.5 nM,26

# Source: US11560372B2, “Heterocyclic compounds useful as modulators of acetylcholine receptors” (TAKEDA PHARMACEUTICAL COMPANY LIMITED, priority 2017, dated 2023)
